Key:
Assay in all cases: relative viability (nuclei count vs DMSO), 5 days (fraction); higher = more cells survive
[1] = compound: N[C@@H]1CCCN(c2c(/C=C3\SC(=O)NC3=O)cccc2-c2ccccc2)C1 [AZD1208] + Cc1cc(Nc2cc(N3CCN(C)CC3)nc(Sc3ccc(NC(=O)C4CC4)cc3)n2)n[nH]1 [Tozasertib] (partner 0.1 µM)
Method in brief: (§1)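 After 5 days of treatment, lung cancer cells in 1536-well plates were fixed and stained in a single step (final 0.05% Triton X-100, 1% formaldehyde, 1 ug/ml Hoechst) and their nuclei counted on 4× images. Treatment had been applied by pin tool the day after seeding as one drug alone or as a fixed anchor-drug dose with five library-drug doses (not always all listed) in √10 steps. Relative viability is the nuclei count of treated wells divided by that of vehicle wells, and values are medians of duplicate plates.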

[2] = compound: CN1CCN(CC1)C2=CC(=C(C=C2)NC3=NC(=C(S3)C(=O)C4=C(C=CC=C4Cl)Cl)N)OC [XMD14-99] + Nc1ncn([C@H]2C[C@H](O)[C@@H](CO)O2)c(=O)n1 [Decitabine] (partner 2 µM)
Method in brief: as §1

[3] = compound: N[C@@H]1CCCN(c2c(/C=C3\SC(=O)NC3=O)cccc2-c2ccccc2)C1 [AZD1208] + O=C(CCCCCCC(=O)Nc1ccccc1)NO [Vorinostat] (partner 1 µM)
Method in brief: as §1

[4] = compound: CN1CCN(CC1)C2=CC(=C(C=C2)NC3=NC(=C(S3)C(=O)C4=C(C=CC=C4Cl)Cl)N)OC [XMD14-99] + C[C@@H](Oc1cc(-c2cnn(C3CCNCC3)c2)cnc1N)c1c(Cl)ccc(F)c1Cl [Crizotinib] (partner 1 µM)
Method in brief: as §1

Cell Line | relative viability ([1]; first compound 0.08 µM) | relative viability ([1]; first compound 0.253 µM) | relative viability ([1]; first compound 0.8 µM) | relative viability ([1]; first compound 2.53 µM) | relative viability ([1]; first compound 8 µM) | relative viability ([2]; first compound 0.08 µM) | relative viability ([2]; first compound 0.8 µM) | relative viability ([2]; first compound 2.53 µM) | relative viability ([2]; first compound 8 µM) | relative viability ([3]; first compound 0.08 µM) | relative viability ([3]; first compound 0.253 µM) | relative viability ([3]; first compound 0.8 µM) | relative viability ([3]; first compound 2.53 µM) | relative viability ([3]; first compound 8 µM) | relative viability ([4]; first compound 0.08 µM) | relative viability ([4]; first compound 0.8 µM) | relative viability ([4]; first compound 2.53 µM) | relative viability ([4]; first compound 8 µM)
SW 1573 | 0.22 | 0.175 | 0.178 | 0.129 | 0.149 | 0.451 | 0.545 | 0.475 | 0.334 | 0.505 | 0.862 | 0.456 | 0.479 | 0.404 | 0.792 | 0.878 | 0.793 | 0.757
ChaGo-K-1 | 0.216 | 0.202 | 0.193 | 0.218 | 0.183 | 0.52 | 0.531 | 0.5 | 0.481 | 0.732 | 0.831 | 0.557 | 0.637 | 0.608 | 1.1 | 1.14 | 1.19 | 0.92
COR-L 105 | 0.35 | 0.384 | 0.376 | – | 0.348 | 0.718 | 0.651 | 0.606 | 0.604 | 1.04 | 0.833 | 0.898 | 0.832 | 0.779 | 0.709 | 0.88 | 0.721 | 0.444
NCI-H1975 | 0.735 | 0.712 | 0.736 | 0.829 | 0.639 | 0.495 | 0.412 | 0.449 | 0.317 | 0.708 | 0.799 | 0.705 | 0.735 | 0.767 | 0.934 | 0.984 | 0.902 | 0.74
NCI-H2009 | 0.696 | 0.785 | 0.667 | 0.684 | 0.597 | 0.342 | 0.343 | 0.378 | 0.371 | 0.747 | 0.777 | 0.698 | 0.788 | 0.67 | 1 | 0.939 | 0.997 | 0.767
SK-LU-1 | 0.298 | 0.298 | 0.246 | 0.285 | 0.22 | 0.606 | 0.707 | 0.666 | 0.412 | 0.776 | 0.785 | 0.73 | 0.783 | 0.736 | 0.788 | 0.923 | 0.796 | 0.58
NCI-H2347 | 0.364 | 0.523 | 0.524 | 0.687 | 0.502 | 0.584 | 0.623 | 0.577 | 0.522 | 0.531 | 0.767 | 0.533 | 0.599 | 0.803 | 0.803 | 0.531 | 0.737 | 0.501
HCC-366 | 0.118 | 0.125 | 0.12 | 0.098 | 0.0502 | 0.32 | 0.363 | 0.347 | 0.291 | 0.373 | 0.473 | 0.391 | 0.36 | 0.291 | 0.494 | 0.503 | 0.478 | 0.497
EMC-BAC-2 | 0.28 | 0.298 | 0.28 | 0.25 | 0.222 | 0.973 | 0.898 | 0.838 | 0.802 | 0.872 | 0.394 | 0.447 | 0.469 | 0.399 | 0.801 | 0.775 | 0.743 | 0.62
NCI-H3122 | 0.402 | 0.315 | 0.353 | 0.348 | 0.369 | 0.405 | 0.359 | 0.333 | 0.283 | 0.97 | 0.943 | 0.924 | 1.05 | 0.524 | 0.267 | 0.229 | 0.262 | 0.251
NCI-H358 | 0.109 | 0.0897 | 0.104 | 0.101 | 0.091 | 0.231 | 0.187 | 0.203 | 0.174 | 0.719 | 0.646 | 0.576 | 0.678 | 0.618 | 0.661 | 0.733 | 0.576 | 0.302
NCI-H1944 | 0.242 | 0.225 | 0.226 | 0.214 | 0.202 | 0.48 | 0.458 | 0.414 | 0.372 | 0.596 | 0.665 | 0.618 | 0.468 | 0.379 | 1.25 | 1.13 | 0.992 | 0.857
EPLC-272H | 0.231 | 0.351 | 0.263 | 0.149 | 0.197 | 0.386 | 0.41 | 0.353 | 0.314 | 0.405 | 0.505 | 0.38 | 0.333 | 0.443 | 0.923 | 0.813 | 1.04 | 0.927
NCI-H1915 | 0.427 | 0.378 | 0.367 | 0.249 | 0.244 | 0.25 | 0.255 | 0.263 | 0.259 | 0.545 | 0.512 | 0.525 | 0.464 | 0.434 | 1.02 | 0.877 | 0.812 | 0.805
NCI-H647 | 0.239 | 0.345 | 0.175 | 0.295 | 0.163 | 0.378 | 0.41 | 0.475 | 0.364 | 0.521 | 0.701 | 0.643 | 0.428 | 0.256 | 0.948 | 0.928 | 1.01 | 0.741
NCI-H441 | 0.641 | 0.555 | 0.57 | 0.508 | 0.375 | 0.279 | 0.242 | 0.308 | 0.234 | 0.742 | 0.757 | 0.62 | 0.616 | 0.711 | 0.596 | 0.797 | 0.661 | 0.494
NCI-H23 | 0.4 | 0.365 | 0.336 | 0.376 | 0.272 | 0.288 | 0.262 | 0.338 | 0.309 | 0.508 | 0.629 | 0.614 | 0.602 | 0.5 | 0.45 | 0.447 | 0.461 | 0.351
NCI-H650 | 0.732 | 0.725 | 0.67 | 0.684 | 0.66 | 0.272 | 0.318 | 0.292 | 0.319 | 0.436 | 0.379 | 0.47 | 0.414 | 0.351 | 0.613 | 0.728 | 0.684 | 0.623
SK-MES-1 | 1 | 0.956 | 0.903 | 0.853 | 0.744 | 0.421 | 0.389 | 0.451 | 0.336 | 1.07 | 1.14 | 1.07 | 1.01 | 1.02 | 0.991 | 0.946 | 1.01 | 0.639
NCI-H2170 | 0.718 | 0.707 | 0.614 | 0.447 | 0.306 | 0.49 | 0.423 | 0.444 | 0.395 | 0.864 | 0.923 | 0.76 | 0.779 | 0.5 | 1.14 | 1.21 | 1.26 | 0.937
NCI-H2087 | 0.245 | 0.2 | 0.264 | 0.209 | 0.212 | 0.282 | 0.264 | 0.234 | 0.192 | 0.789 | 0.795 | 0.752 | 0.73 | 0.406 | 0.773 | 0.896 | 0.632 | 0.463
NCI-H838 | 0.277 | 0.261 | 0.267 | 0.268 | 0.264 | 0.477 | 0.452 | 0.426 | 0.436 | 0.679 | 0.661 | 0.639 | 0.682 | 0.689 | 0.877 | 0.798 | 0.82 | 0.557
NCI-H460 | 0.461 | 0.473 | 0.474 | 0.347 | 0.389 | 0.461 | 0.486 | 0.495 | 0.385 | 0.731 | 0.858 | 0.732 | 0.708 | 0.737 | 0.876 | 0.888 | 0.955 | 0.667
LOU-NH91 | 0.711 | 0.558 | 0.62 | 0.556 | 0.516 | 0.868 | 0.853 | 0.807 | 0.776 | 0.965 | 0.955 | 0.864 | 0.838 | 0.865 | 0.789 | 0.743 | 0.717 | 0.698
NCI-H322M | 0.429 | 0.492 | 0.463 | 0.463 | 0.439 | 0.684 | 0.667 | 0.706 | 0.645 | 0.934 | 0.868 | – | 0.837 | 0.821 | 0.927 | 0.972 | 0.905 | 0.848
NCI-H520 | 0.432 | 0.37 | 0.422 | 0.355 | 0.331 | 0.465 | 0.468 | 0.483 | 0.44 | 0.735 | 0.73 | 0.711 | 0.768 | 0.449 | 0.734 | 0.694 | 0.724 | 0.648
NCI-H661 | 0.351 | 0.347 | 0.361 | 0.358 | 0.355 | 0.562 | 0.55 | 0.502 | 0.44 | 0.796 | 0.775 | 0.827 | 0.82 | 0.917 | 0.897 | – | 0.894 | 0.838
NCI-H727 | 0.673 | 0.636 | 0.568 | 0.566 | 0.585 | 0.881 | 0.805 | 0.857 | 0.599 | 0.925 | 1.14 | 1.11 | 1.11 | 1.03 | 0.889 | 0.704 | 0.561 | 0.381
NCI-H1734 | 0.272 | 0.26 | 0.247 | 0.219 | 0.227 | 0.505 | 0.494 | 0.477 | 0.477 | 0.731 | 0.739 | 0.756 | 0.663 | 0.599 | 0.634 | 0.713 | 0.618 | 0.638
